Tests used:
wild-type BRAF protein = conditions: read-out: EC50 for the wild-type BRAF protein; preclinical; cited from earlier work
[1] = system: patients with locally advanced or metastatic melanoma; assay: Phase I dose-escalation: safety, adverse events (NCI CTCAE v3.0), DLT and MTD; type: in vivo
Excerpt: This study was an open‐label, multicenter, nonrandomized, phase I/II, dose‐escalation study of orally administered RAF265. […] The study was comprised of two phases: A dose escalation phase and an expansion phase at the MTD/RP2D. The dose‐escalation phase was guided by pharmacokinetics (PK), pharmacodynamics (PD) and safety. […] In the expansion phase (cohort 7.1) the PK run in was omitted and patients received a loading dose in 3 divided doses followed by lower daily dose beginning on Cycle 1, Day 2. The cycle length was 28 days in all cohorts. Here, we report the dose escalation and expansion arm investigating a continuous treatment regimen.
Medical history and demographics were collected at screening. The safety of study medication was evaluated on the basis of rate, type, severity graded in accordance with NCI CTCAE version 3.0. Safety assessments consisted of collecting all AEs, serious adverse events (SAEs) with their severity and relationship with study drug, and pregnancies. They included the regular monitoring of hematology, blood chemistry and urine performed at the study center/central laboratory and regular assessments of vital signs, physical condition, body weight, performance status, and cardiac data (i.e. electrocardiogram (ECG)/echocardiogram (ECHO)). Abnormalities in clinical laboratory tests that were considered clinically significant by the Investigator were recorded on the AE CRF. Dose‐limiting toxicities (DLTs) were defined for various organ systems and other clinically relevant adverse effects (Table S1). The DLT window was the first cycle while AEs were captured for the entire course of treatment. Evaluation of tumor response was conducted at Baseline, and at the end of every 8 weeks of treatment. Response was assessed using the Response Evaluation Criteria in Solid Tumors (RECIST) 1.0. A complete or partial response (CR or PR) was confirmed at least 28 days after the first assessment that documented response and every two cycles thereafter until disease progression, initiation of confounding anticancer therapy, death, loss to follow‐up, withdrawal of consent, or study termination. All patients discontinuing from the study for progressive disease were to have their disease progression documented by radiologic evaluation.
The MTD was defined as the dose level with 16–33.3% probability of a DLT. […] Descriptive statistic were used for the analysis of PK, biomarker analysis and tumor response data.

[2] = system: tumor metabolic activity (SUV); assay: Metabolic tumor response by 18[F]-FDG-PET; type: in vivo, human
Procedure: Pharmacodynamic markers were examined using peripheral blood samples, tumor and nevi biopsies (when available) and tumor imaging. BRAF mutation status was determined by Sanger sequencing. Pharmacodynamic markers analyzed, in available tumor/nevus samples obtained before treatment or archival tissue and during treatment on cycle 1, day 8 or day 15, including cytoplasmic p‐MEK, p‐ERK, BIM, c‐KIT, p‐AKT473, pS6 and PTEN, and nuclear p‐ERK, Ki‐67, PARP, cyclin D1, MITF, p27, and p53. Biomarker expression was determined by calculating the percentage of change in the H‐score (14) between on‐treatment and fresh/archival pretreatment specimens. Blood levels of VEGFR‐2 and were assessed before and at multiple time points while on treatment using enzyme‐linked immunosorbent assay (ELISA). […] Changes in standard uptake value (SUV) were determined by a blinded, independent central imaging review panel. Complete metabolic response (CMR) was complete resolution of tumor FDG‐PET uptake so SUV is the same as background. Partial metabolic response (PMR) decrease in sum of the tumor SUV of ≥25% from the baseline scan. Progressive metabolic disease (PMD) was defined as an increase in tumor SUV of ≥25% from the baseline scan, or the appearance of new FDG‐PET uptake in metastatic lesions. Stable metabolic disease (SMD) was defined as a change in tumor SUV between the PMR and PMD criteria.

For `Cn1c(Nc2ccc(C(F)(F)F)cc2)nc2cc(Oc3ccnc(-c4ncc(C(F)(F)F)[nH]4)c3)ccc21` [RAF265], the EC50 (wild-type BRAF protein) is given as […], the “deaths within 28 days of last administration of the study drug” value ([1]; 5 deaths, none deemed treatment related) is given as 6.5% and the “AEs requiring dose adjustment or interruption, patients” value ([1]; human, in vivo) is given as 39%. The “Abdominal pain (treatment-emergent grade 3/4)” value ([1]; human, in vivo) was 1 (2.4%) n (%), the “Angina unstable (treatment-emergent grade 3/4)” value ([1]; human, in vivo) was 1 (2.4%) n (%) and the “Ataxia (treatment-emergent grade 3/4)” value ([1]; human, in vivo) was 1 (2.4%) n (%). The “Basal cell carcinoma (treatment-emergent grade 3/4)” value ([1]; human, in vivo) was 1 (2.4%) n (%), the “Blood lactic acid increased (treatment-emergent grade 3/4)” value ([1]; human, in vivo) was 1 (2.4%) n (%) and the “Cutaneous lupus erythematosus (treatment-emergent grade 3/4)” value ([1]; human, in vivo) was 1 (2.4%) n (%). For the same compound, the “Decreased appetite (treatment-emergent grade 3/4)” value ([1]; human, in vivo) was 2 (4.8%) n (%), the “Diarrhea (treatment-emergent grade 3/4)” value ([1]; human, in vivo) was 4 (9.8%) n (%) and the “Dyspnea (treatment-emergent grade 3/4)” value ([1]; human, in vivo) was 1 (2.4%) n (%). For the same compound, the “Fatigue (treatment-emergent grade 3/4)” value ([1]; human, in vivo) was 6 (14.4%) n (%), the “Hematological (treatment-emergent grade 3/4)” value ([1]; human, in vivo) was 12 (29.2%) n (%) and the “Hypertension (treatment-emergent grade 3/4)” value ([1]; human, in vivo) was 4 (9.8%) n (%). For the same compound, the “Hypophosphatemia (treatment-emergent grade 3/4)” value ([1]; human, in vivo) was 1 (2.4%) n (%), the “Lipase increased (treatment-emergent grade 3/4)” value ([1]; human, in vivo) was 2 (4.8%) n (%) and the “Neutropenia (treatment-emergent grade 3/4)” value ([1]; human, in vivo) was 4 (9.8%) n (%). The “Pancytopenia (treatment-emergent grade 3/4)” value ([1]; human, in vivo) was 1 (2.4%) n (%), the “Pulmonary embolism (treatment-emergent grade 3/4)” value ([1]; human, in vivo) was 2 (4.8%) n (%) and the SAE constipation ([1]; human, in vivo) was 2.6%. For the same compound, the SAE dehydration ([1]; human, in vivo) was 5.2%, the SAE pulmonary embolism ([1]; human, in vivo) was 6.5% and the SAE retinopathy ([1]; human, in vivo) was 2.6%. For the same compound, the SAE thrombocytopenia ([1]; human, in vivo) was 3.9%, the “Squamous cell carcinoma (treatment-emergent grade 3/4)” value ([1]; human, in vivo) was 2 (4.8%) n (%) and the “Thrombocytopenia (treatment-emergent grade 3/4)” value ([1]; human, in vivo) was 7 (17.1%) n (%). For the same compound, the “Total (n), treatment-emergent grade 3/4 events” value ([1]; human, in vivo) was 41 (53.2%) n (%), the “Vitreous floaters (treatment-emergent grade 3/4)” value ([1]; human, in vivo) was 2 (4.8%) n (%) and the “Weight loss (treatment-emergent grade 3/4)” value ([1]; human, in vivo) was 1 (2.4%) n (%). For the same compound, the “decreased appetite requiring dose adjustment or interruption” value ([1]; human, in vivo) was 5.2%, the “development of hypertension, patients” value ([1]; human, in vivo) was 17% and the “diarrhea requiring dose adjustment or interruption” value ([1]; human, in vivo) was 6.5%. The “fatigue requiring dose adjustment or interruption” value ([1]; human, in vivo) was 7.8%, the “hypertension requiring dose adjustment or interruption” value ([1]; human, in vivo) was 5.2% and the “nausea requiring dose adjustment or interruption” value ([1]; human, in vivo) was 5.2%. The “overall rate of grade 3 and 4 toxicities” value ([1]; human, in vivo) was 53.2%, the “photopsia requiring dose adjustment or interruption” value ([1]; human, in vivo) was 5.2% and the “serious adverse events (SAEs), patients” value ([1]; human, in vivo) was 37.7%. The “thrombocytopenia requiring dose adjustment or interruption” value ([1]; human, in vivo) was 3.9%, the “vitreous floaters requiring dose adjustment or interruption” value ([1]; human, in vivo) was 5.2% and the “vitreous floaters, treatment-related adverse effect, patients” value ([1]; human, in vivo) was 27%. The “patients with dose-limiting toxicities” value ([1]; human, in vivo, 28 days) was 6 patients, the “maximum tolerated dose (MTD)” value ([1]; once daily given continuously (dose level 6)) was 48 mg and the “PMR, patients” value ([2]; BRAF WT disease, C1D15, 1 of 29) was 3.4%. For the same compound, the “PMR, patients” value ([2]; BRAF mutant tumors, C1D15, 8 of 33) was 24.2%, the “PMR, patients” value ([2]; BRAF-WT disease, C1D28, 3 of 28) was 10.7% and the “PMR, patients” value ([2]; BRAF-mutant tumors, C1D28, 8 of 28) was 28.6%. The “partial metabolic response (PMR), patients” value ([2]; C1D15, 10 of 65) was 15.4%, the “progressive metabolic disease (PMD), patients” value ([2]; C1D15, 65 patients) was 13.8% and the “stable metabolic disease (SMD), patients” value ([2]; C1D15, 65 patients) was 70.8%. The “partial metabolic response (PMR), patients” value ([2]; C1D28, 58 evaluable patients, all dose levels) was 20.7%, the “progressive metabolic disease (PMD), patients” value ([2]; C1D28, 58 patients) was 17.2% and the “stable metabolic disease (SMD), patients” value ([2]; C1D28, 58 patients) was 62.1%. The “patients with RECIST-defined responses who also had partial metabolic response” value ([2]; in vivo) was “Five of eight”.

— article PMC5548886 (Cancer Medicine, 2017)
